# Like-named read-outs stand apart in the source and are kept apart here.
# Assays:
# [1] = test system: PANDI - fall panicum (Panicum dichotomiflorum Michx.); test: Greenhouse evaluation of postemergence herbicidal activity, foliar treatment, PANDI; assay type: in vivo; conditions: 16 DAA
# From the text: (§1) Seeds or nutlets of the desired test plant species were planted in a soil matrix prepared by mixing a sandy loam soil (28.6 percent silt, 18.8 percent clay, and 52.6 percent sand, with a pH of about 5.8 and an organic matter content of about 1.8 percent) and calcareous grit in an 80 to 20 ratio. The soil matrix was contained in plastic pots with a surface area of 84.6 cm^2 and a volume of 560 cubic centimeters (cm^3). When required to ensure good germination and healthy plants, a fungicide treatment and/or other chemical or physical treatment was applied. The plants were grown for 7-31 days (d) in a greenhouse with an approximate 15 hour (h) photoperiod which was maintained at about 23-29° C. during the day and 22-28° C. during the night. Nutrients (Peters Excel® 15-5-15 5-Ca2-Mg) and water were added on a regular basis and supplemental lighting was provided with overhead metal halide 1000-Watt lamps as necessary. The plants were employed for testing when they reached the first, second, or third true leaf stage.
# Treatment requirements were calculated based upon the rates being tested, the concentration of active ingredient or acid equivalent in the formulation, and a 12 mL application volume at a rate of 187 L/ha.
# (§2) Treatments consisted of the potassium (K^+) salt of 4-amino-3-chloro-6-(4-chloro-2-fluoro-3-methoxy-phenyl)pyridine-2-carboxylic acid formulated as an SL or the benzyl ester of 4-amino-3-chloro-6-(4-chloro-2-fluoro-3-methoxy-phenyl)pyridine-2-carboxylic acid as technical material, and 2,4-D dimethylamine (DMA) salt applied as Weedar® 64 EC alone and in combination. Forms of the pyridine carboxylic acid and 2,4-D were applied on an acid equivalent basis.
# (§3) For treatments comprised of formulated compounds, measured amounts of compounds were placed individually in 25 mL glass vials and diluted in a volume of 1.5% (v/v) Agri-dex® crop oil concentrated to obtain 6× stock solutions. […] Application solutions were prepared by adding an appropriate amount of each stock solution (typically 2 mL) and diluted to the appropriate final concentrations with the addition of an appropriate amount of an aqueous mixture of 1.5% (v/v) crop oil concentrate and an appropriate amount of water so that the final spray solutions contained 1.25+/−0.05% (v/v) crop oil concentrate.
# For treatments comprised of formulated and technical compounds, weighed amounts of the technical materials were placed individually in 25 mL glass vials and dissolved in a volume of 97:3 v/v acetone/DMSO to obtain 6× stock solutions, and measured amounts of the formulated compounds were placed individually in 25 mL glass vials and diluted in a volume of 1.5% (v/v) crop oil concentrate to obtain 6× stock solutions. […]
# [2] = test system: ELEIN - goosegrass (Eleusine indica (L.) Gaertn.); conditions: 14 DAA, greenhouse, foliar
# Experimental: as §1, with “When required to ensure good germination and healthy plants, a fungicide treatment and/or other chemical or physical treatment was applied.” left out
# as §2, §3
# (§4) For treatments comprised of formulated and technical compounds, weighed amounts of the technical materials were placed individually in 25 mL glass vials and dissolved in a volume of 97:3 v/v acetone/DMSO to obtain 6× stock solutions, and measured amounts of the formulated compounds were placed individually in 25 mL glass vials and diluted in a volume of 1.5% (v/v) crop oil concentrate to obtain 6× stock solutions. […] Application solutions were prepared by adding an appropriate amount of each stock solution (eg, 2 mL) and diluted to the appropriate final concentrations with the addition of an appropriate amount of an aqueous mixture of 1.5% (v/v) crop oil concentrate and an appropriate amount of water so that the final spray solutions contained 1.25% (v/v) crop oil concentrate. The final acetone and DMSO concentrations of the application solutions containing technical material were 16.2% and 0.5%, respectively.
# (§5) All stock solutions and applications solutions were visually inspected for compound compatibility prior to application. Compound requirements are based upon a 12 mL application volume at a rate of 187 liters per hectare (L/ha). Application solutions were applied to the plant material with an overhead Mandel track sprayer equipped with 8002E nozzles calibrated to deliver 187 L/ha over an application area of 0.503 square meters (m^2) at a spray height of 18 to 20 inches above the average plant canopy height. Control plants were sprayed in the same manner with the solvent blank.
# (§6) The treated plants and control plants were placed in a greenhouse as described above and watered by sub-irrigation to prevent wash-off of the test compounds. After approximately 2 weeks, the condition of the test plants as compared with that of the untreated plants was determined visually and scored on a scale of 0 to 100 percent where 0 corresponds to no injury and 100 corresponds to complete kill.
# [3] = test system: LOLMU - Italian ryegrass (Lolium perenne L. ssp. multiflorum (Lam.) Husnot); conditions: 14 DAA, greenhouse, foliar
# Experimental: as §1, with “When required to ensure good germination and healthy plants, a fungicide treatment and/or other chemical or physical treatment was applied.” left out
# as §2, §3, §4, §5, §6
# [4] = test system: MEOPA - escoba blanca (Melochia parviflora); test: Field evaluation of postemergence herbicidal activity of mixtures in range and pasture (Colombia); assay type: in vivo; conditions: 14 DAA
# Experimental: Field trials were conducted in pastures in Colombia using standard herbicide small plot research methodology. Plot size was typical for small plot research, varying from 2 meters (m) wide by 6 m long. There were 4 replicates per treatment. Soil type ranged from medium to heavy soil texture. Perennial pastures were sown by hand direct dry seeding as per normal local cultural practices. The pastures were grown using normal cultural practices for fertilization and maintenance to ensure good growth of the pastures and the weeds.
# Treatments were applied by backpack sprayer using either compressed air or carbon dioxide (CO2), at spray pressures from […]. Spray tips were typically Flat Fan Teejet nozzles, such as TJ8003. Spray volumes used were 400 liters per hectare (L/ha). MEOPA plant size at application varied from 70 to 80 centimeters (cm) tall active growth at flowering stage.
# For each treatment, the appropriate formulated product amount to treat the plot area, to achieve the desired application rate, based on unit area of application (hectare), was calculated, measured, and mixed in water prior to applying with the backpack sprayer. Treatments were rated as compared to the untreated control plots. 2,4-D was used as Invesamina 480 SL®. Compound I was formulated as a 10% weight percent active ingredient (wt ai %—100 grams ai per L (g ai/L); 95.94 g ae/L) suspension concentrate (SC) of the corresponding methyl ester.
# For both Example 1 and Example 2, the Colby equation was used to determine the herbicidal effects expected from the mixtures (Colby, S. R. Calculation of the synergistic and antagonistic response of herbicide combinations. Weeds 1967, 15, 20-22.).
# The following equation was used to calculate the expected activity of mixtures containing two active ingredients, A and B:
# A=observed efficacy of active ingredient A at the same concentration as used in the mixture.
# B=observed efficacy of active ingredient B at the same concentration as used in the mixture.
# [5] = 2,4-D dimethyl amine 52.5 g ae/ha alone
# [6] = 2,4-D dimethyl amine 105 g ae/ha alone
# [7] = potassium salt 3.75 g ae/ha alone
compound,measurement,setting,value
"CNC.O=C(O)COc1ccc(Cl)cc1Cl [2,4-D (Dimethyl Amine), 2,4-D dimethylamine (DMA) salt]",PANDI (% Control) Obs,[1]; [5],0%
same,PANDI (% Control) Obs,[1]; [6],0%
same,PANDI (% Control) Obs,"[1]; 2,4-D dimethyl amine 210 g ae/ha alone",0%
same,ELEIN (% Control) Obs,[2]; [5],0%
same,ELEIN (% Control) Obs,[2]; [6],0%
same,LOLMU (% Control) Obs,[3]; [5],0%
same,LOLMU (% Control) Obs,[3]; [6],0%
"O=C(O)COc1ccc(Cl)cc1Cl [2,4-D, (2,4-dichlorophenoxy)acetic acid]",MEOPA (% Control) Obs,"[4]; 2,4-D 480 g ae/ha alone",3.8%
"COc1c(Cl)ccc(-c2cc(N)c(Cl)c(C(=O)OCc3ccccc3)n2)c1F [Pyridine Carboxylic Acid (Benzyl Ester), benzyl ester of 4-amino-3-chloro-6-(4-chloro-2-fluoro-3-methoxy-phenyl)pyridine-2-carboxylic acid]",ELEIN (% Control) Obs,[2]; benzyl ester 3.75 g ae/ha alone,0%
same,ELEIN (% Control) Obs,[2]; benzyl ester 7.5 g ae/ha alone,25%
"COC(=O)c1nc(-c2ccc(Cl)c(OC)c2F)cc(N)c1Cl [Pyridine Carboxylic Acid (Methyl Ester), halauxifen-methyl]",MEOPA (% Control) Obs,[4]; methyl ester 17.5 g ae/ha alone,48.5%
same,MEOPA (% Control) Obs,[4]; methyl ester 35 g ae/ha alone,63.1%
COc1c(Cl)ccc(-c2cc(N)c(Cl)c(C(=O)[O-])n2)c1F.[K+] [potassium (K^+) salt of 4-amino-3-chloro-6-(4-chloro-2-fluoro-3-methoxy-phenyl)pyridine-2-carboxylic acid],PANDI (% Control) Obs,[1]; [7],75%
same,LOLMU (% Control) Obs,[3]; [7],15%
same,LOLMU (% Control) Obs,[3]; potassium salt 7.5 g ae/ha alone,35%

# Reference: patent US20130143738A1, “HERBICIDAL COMPOSITION CONTAINING CERTAIN PYRIDINE CARBOXYLIC ACIDS AND (2,4-DICHLOROPHENOXY)ACETIC ACID” (DOW AGROSCIENCES LLC, priority 2011, published 2013)
